Laboratory results: US20060069038A1, “Irreversible caspase-3 inhibitors as active site probes” (priority 2003, published 2006)

What was measured:
active caspases = assay: [125I]-M808 labeling of active caspases in rat tissue protein extracts; type: binding
Protocol: Tissues (rat liver, kidney, brain, thymus, mouse thymus) were either frozen or processed within 20 minutes of their removal. Rat tissues and cultured cells were homogenized in ice cold cell lysis buffer (50 mM Tris-Cl pH 7.5, 2 mM EDTA, 1% NP-40) supplemented with 5 mM DTT and Complete protease inhibitor cocktail (Roche). Thymi from mice injected with [^125I]-M808 were homogenized in lysis buffer supplemented with 25 μM of M808. Nuclear debris was removed by centrifugation at 13000 rpm for 10 min and the soluble fraction quantitated by Bradford assay (Bio-Rad). Caspase-3 like activity was determined with the fluorogenic substrate Ac-DEVD-AMC as described by Roy et al. (2001) Proc. Nat. Acad. Sci. USA 98: 6132-6137.
The determination of caspase activity by [^125I]-M808 labeling was performed by pre-incubating purified recombinant human caspase-3 with indicated amounts of caspase inhibitor (M791) or vehicle (DMSO), for 1 hour at 25° C. in ICE buffer III (50 mM Hepes-KOH pH 7.0, 0.1% CHAPS, 10% sucrose, 2 mM EDTA), supplemented with 5 mM DTT. [^125I]-M808 was added to a final concentration of 1.25 μM and incubated for 5 min at 25° C. Active caspases in tissue or cell extracts were labeled by incubating 60-80 μg of lysate with [^125I]-M808 for 15 minutes at 25° C. […]

caspase-3 = biological target: T1, caspase-3 (Rattus norvegicus, UniProt P55213); assay: Saturation labeling of caspases in protein extracts of thymi from CLP-operated rats dosed with M867; type: binding; conditions: low specific activity probe, 80 μg rat thymus extract
T1 construct: endogenous in cells; host or cells: primary rat thymocytes (Sprague-Dawley), spontaneous apoptosis in culture
T1 sequence (P55213 29-175 limits assumed): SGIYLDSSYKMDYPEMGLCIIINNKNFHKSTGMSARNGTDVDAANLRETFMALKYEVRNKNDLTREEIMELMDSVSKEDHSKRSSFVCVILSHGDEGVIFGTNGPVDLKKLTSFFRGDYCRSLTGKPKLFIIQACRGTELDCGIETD
T1 sequence (P55213 176-277 limits assumed): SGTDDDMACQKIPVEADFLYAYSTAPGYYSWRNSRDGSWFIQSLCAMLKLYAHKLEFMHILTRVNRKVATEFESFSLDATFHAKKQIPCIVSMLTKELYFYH
Protocol: FIG. 7. Comparison of p17 caspase labeled with [^125I]-M808 for a short or a long incubation period. Septic rats were dosed intravenously with either vehicle or the indicated concentration of M867. Thymi were collected 24 hours post-CLP surgery. Western blot showing the appearance of cleaved p17 caspase-3. Partial caspase-3 labeling with high specific activity probe for 5 minutes. Saturated [^125I]-M808 labeling of active caspases in the same thymi extracts with low specific activity probe for 3 hours or 18 hours. During the long incubation period, M867 originally present on caspase-3 (seen from low or absent labeling) dissociates from the active site and is replaced by the irreversible active site probe [^125I]-M808. Displacement is essentially complete by 3 hours since no change in labeling intensity was observed between a 3 h and 18 h incubation period at 37° C.
Quantitation of total amount of active caspase can be determined by exposing protein extracts from either cultured cells (Jurkats, thymocytes) of CLP-derived rat thymi to low-specific activity [^125I]-M808 for long period of time. Briefly, 80 μg of rat thymus protein extracts from CLP-operated rats dosed with M867, were incubated for 3 hours or 18 hours with 1250 M808 (5 nM at 2000 Ci/mmole) and M808 (395 nM). […]

incubation time sufficient to label all active caspase-3 quantitatively (caspase-3) | SMILES | effect on [125I]-M808 labeling when added to extract prior to probe (active caspases; granzyme-B treated rat tissue extracts, FIG. 2A lanes 6-9) | recognition of active caspases in injured tissue extracts (active caspases; HI neonatal rat brain, infarcted rat heart, septic rat thymi extracts)
 | COc1ccc(-c2nc(C)no2)cc1CC(=O)N[C@H](C(=O)N[C@@H](CC(=O)O)C(=O)CSCc1ccccc1)C(C)C [Example M791, (3S)-5-(benzylthio)-3-[(N-{[2-methoxy-5-(3-methyl-1,2,4-oxadiazol-5-yl)phenyl]acetyl}-L-valyl)amino]4-oxopentanoic acid] | No radiolabeling (lanes 6-8) or strongly reduced labeling (lane 9) | 
3 h | COc1ccc(I)cc1CC(=O)N[C@H](C(=O)NC(CC(=O)O)C(=O)CF)C(C)C (stereo partly drawn) [[^125I]-M808, 5-fluoro-3-({N-[(5-iodo-2-methoxyphenyl)acetyl]-L-valyl}amino)-4-oxopentanoic acid] |  | specifically recognizes active caspases in several types of injured tissues
